Measured values reported in article PMC13366236 (Acta Pharmaceutica Sinica. B, 2025).
Several values for one entry are separate records, joined by “and”; a condition that tells them apart may be missing. Equal values may be shown once. Each block holds one molecule with its values, some of them ahead of it.

How the values were obtained:
MDA-MB-231 cells [1] = assay: Cell viability CCK-8 assay; type: cell-based, human; settings: for IC50: Homo sapiens, MDA-MB-231, 48 h, read-out: Antiproliferative IC50 ± SD
MDA-MB-436 cells = assay: Cell viability CCK-8 assay; type: cell-based; settings: Homo sapiens, MDA-MB-436, 48 h, read-out: Antiproliferative IC50 ± SD
CYP 2C9 = CYP 2C9 (Homo sapiens, UniProt P11712); assay: CYP enzyme inhibition; settings: CYP 2C9 IC50
CYP 1A2 = CYP 1A2 (Homo sapiens, UniProt P05177); assay: CYP enzyme inhibition
Chain of CYP 1A2 (P05177 whole entry): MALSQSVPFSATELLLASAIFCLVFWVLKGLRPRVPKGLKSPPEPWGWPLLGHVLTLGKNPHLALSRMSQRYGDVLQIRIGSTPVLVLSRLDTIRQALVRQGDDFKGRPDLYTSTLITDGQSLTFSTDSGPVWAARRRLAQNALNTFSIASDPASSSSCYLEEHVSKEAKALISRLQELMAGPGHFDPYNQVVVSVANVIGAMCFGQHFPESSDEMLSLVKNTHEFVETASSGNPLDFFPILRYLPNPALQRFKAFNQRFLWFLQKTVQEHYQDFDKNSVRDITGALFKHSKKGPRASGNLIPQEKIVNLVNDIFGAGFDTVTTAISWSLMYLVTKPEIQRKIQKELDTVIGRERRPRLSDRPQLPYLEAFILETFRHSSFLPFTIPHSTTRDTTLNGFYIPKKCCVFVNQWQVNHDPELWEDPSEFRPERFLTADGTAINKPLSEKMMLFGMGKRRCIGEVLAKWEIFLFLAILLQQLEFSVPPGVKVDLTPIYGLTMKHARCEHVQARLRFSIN

PI3Kβ = PI3Kβ (Homo sapiens, UniProt P42338); assay: biochemical
MCF-7 cells = assay: Cell viability CCK-8 assay; type: cell-based; settings: Homo sapiens, MCF7, 48 h, read-out: Antiproliferative IC50 ± SD
PI3Kγ = PI3Kγ (Homo sapiens, UniProt P48736); assay: biochemical
Chain of PI3Kγ (P48736 whole entry): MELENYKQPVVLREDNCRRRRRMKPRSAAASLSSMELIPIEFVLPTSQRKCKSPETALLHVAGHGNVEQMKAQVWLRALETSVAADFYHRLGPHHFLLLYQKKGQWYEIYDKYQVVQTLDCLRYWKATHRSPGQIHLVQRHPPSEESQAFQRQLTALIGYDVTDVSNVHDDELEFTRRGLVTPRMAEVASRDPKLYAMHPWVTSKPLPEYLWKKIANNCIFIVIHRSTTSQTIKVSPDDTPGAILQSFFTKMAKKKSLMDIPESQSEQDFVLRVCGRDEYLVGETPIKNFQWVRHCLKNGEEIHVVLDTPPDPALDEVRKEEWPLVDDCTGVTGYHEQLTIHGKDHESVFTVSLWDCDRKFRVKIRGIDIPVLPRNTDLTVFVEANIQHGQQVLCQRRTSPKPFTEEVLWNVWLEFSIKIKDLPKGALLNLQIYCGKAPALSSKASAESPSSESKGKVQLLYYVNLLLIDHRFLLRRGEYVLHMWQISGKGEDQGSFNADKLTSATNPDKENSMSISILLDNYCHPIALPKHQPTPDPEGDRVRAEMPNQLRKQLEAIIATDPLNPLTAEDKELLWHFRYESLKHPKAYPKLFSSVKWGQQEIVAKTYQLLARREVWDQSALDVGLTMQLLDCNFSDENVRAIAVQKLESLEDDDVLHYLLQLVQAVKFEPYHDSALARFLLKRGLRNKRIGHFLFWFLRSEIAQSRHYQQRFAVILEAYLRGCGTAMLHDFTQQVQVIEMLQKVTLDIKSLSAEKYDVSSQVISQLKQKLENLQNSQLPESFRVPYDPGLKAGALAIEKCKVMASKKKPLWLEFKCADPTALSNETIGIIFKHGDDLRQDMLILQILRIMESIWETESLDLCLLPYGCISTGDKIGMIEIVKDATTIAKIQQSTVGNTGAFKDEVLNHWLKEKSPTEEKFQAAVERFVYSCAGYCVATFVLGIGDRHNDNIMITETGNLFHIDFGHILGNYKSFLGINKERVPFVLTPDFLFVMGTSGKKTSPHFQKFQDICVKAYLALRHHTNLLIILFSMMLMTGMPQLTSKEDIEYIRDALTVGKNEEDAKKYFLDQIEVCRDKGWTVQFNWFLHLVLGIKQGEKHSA

PI3Kδ = PI3Kδ (Homo sapiens, UniProt O00329); assay: biochemical
CYP 2D6 = CYP 2D6 (Homo sapiens, UniProt P10635); assay: CYP enzyme inhibition; settings: CYP 2D6 IC50
Chain of CYP 2D6 (P10635 whole entry): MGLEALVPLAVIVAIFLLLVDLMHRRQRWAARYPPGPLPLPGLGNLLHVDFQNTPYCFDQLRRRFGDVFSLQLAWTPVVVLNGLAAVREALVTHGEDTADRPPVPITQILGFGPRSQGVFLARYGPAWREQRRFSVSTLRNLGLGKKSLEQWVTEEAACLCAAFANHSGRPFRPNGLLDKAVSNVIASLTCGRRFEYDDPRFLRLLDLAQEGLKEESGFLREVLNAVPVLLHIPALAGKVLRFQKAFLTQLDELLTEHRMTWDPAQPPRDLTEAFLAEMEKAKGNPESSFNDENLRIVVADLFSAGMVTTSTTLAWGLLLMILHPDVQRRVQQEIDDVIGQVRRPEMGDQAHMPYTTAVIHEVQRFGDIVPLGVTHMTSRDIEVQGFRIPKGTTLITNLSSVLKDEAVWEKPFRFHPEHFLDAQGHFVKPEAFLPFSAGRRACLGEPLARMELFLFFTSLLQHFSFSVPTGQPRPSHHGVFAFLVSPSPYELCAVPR

CYP 3A4 = CYP 3A4 (Homo sapiens, UniProt P08684); assay: CYP enzyme inhibition; settings: CYP 3A4 IC50
Chain of CYP 3A4 (P08684 whole entry): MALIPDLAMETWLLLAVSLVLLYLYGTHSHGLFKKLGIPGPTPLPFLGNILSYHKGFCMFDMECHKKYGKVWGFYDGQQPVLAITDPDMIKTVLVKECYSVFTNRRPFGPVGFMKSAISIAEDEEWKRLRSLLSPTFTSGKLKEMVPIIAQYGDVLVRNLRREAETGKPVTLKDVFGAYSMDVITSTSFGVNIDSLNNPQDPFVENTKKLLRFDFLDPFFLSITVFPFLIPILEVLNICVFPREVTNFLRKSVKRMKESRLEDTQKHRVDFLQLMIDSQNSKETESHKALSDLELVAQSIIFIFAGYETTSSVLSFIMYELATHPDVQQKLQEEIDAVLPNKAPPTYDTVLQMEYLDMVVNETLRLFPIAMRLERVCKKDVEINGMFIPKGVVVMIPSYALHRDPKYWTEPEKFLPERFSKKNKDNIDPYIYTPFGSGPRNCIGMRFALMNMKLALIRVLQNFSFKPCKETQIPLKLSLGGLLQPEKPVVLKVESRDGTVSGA

CYP 2C19 = CYP 2C19 (Homo sapiens, UniProt P33261); assay: CYP enzyme inhibition; settings: CYP 2C19 IC50
Chain of CYP 2C19 (P33261 whole entry): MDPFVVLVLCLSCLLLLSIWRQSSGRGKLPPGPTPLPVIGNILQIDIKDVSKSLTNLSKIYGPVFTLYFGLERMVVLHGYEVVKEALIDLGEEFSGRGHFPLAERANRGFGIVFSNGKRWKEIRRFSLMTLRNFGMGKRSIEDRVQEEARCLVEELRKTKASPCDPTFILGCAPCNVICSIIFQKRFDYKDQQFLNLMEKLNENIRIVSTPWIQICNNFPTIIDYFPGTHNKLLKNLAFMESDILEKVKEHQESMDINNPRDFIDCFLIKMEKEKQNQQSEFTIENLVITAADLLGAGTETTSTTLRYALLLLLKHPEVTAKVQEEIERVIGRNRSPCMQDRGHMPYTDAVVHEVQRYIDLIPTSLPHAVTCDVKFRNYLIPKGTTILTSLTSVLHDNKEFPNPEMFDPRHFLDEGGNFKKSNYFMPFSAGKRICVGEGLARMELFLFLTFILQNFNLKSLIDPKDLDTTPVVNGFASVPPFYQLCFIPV

PI3Kα = PI3Kα (Homo sapiens, UniProt P42336); assay: biochemical
Chain of PI3Kα (P42336 whole entry): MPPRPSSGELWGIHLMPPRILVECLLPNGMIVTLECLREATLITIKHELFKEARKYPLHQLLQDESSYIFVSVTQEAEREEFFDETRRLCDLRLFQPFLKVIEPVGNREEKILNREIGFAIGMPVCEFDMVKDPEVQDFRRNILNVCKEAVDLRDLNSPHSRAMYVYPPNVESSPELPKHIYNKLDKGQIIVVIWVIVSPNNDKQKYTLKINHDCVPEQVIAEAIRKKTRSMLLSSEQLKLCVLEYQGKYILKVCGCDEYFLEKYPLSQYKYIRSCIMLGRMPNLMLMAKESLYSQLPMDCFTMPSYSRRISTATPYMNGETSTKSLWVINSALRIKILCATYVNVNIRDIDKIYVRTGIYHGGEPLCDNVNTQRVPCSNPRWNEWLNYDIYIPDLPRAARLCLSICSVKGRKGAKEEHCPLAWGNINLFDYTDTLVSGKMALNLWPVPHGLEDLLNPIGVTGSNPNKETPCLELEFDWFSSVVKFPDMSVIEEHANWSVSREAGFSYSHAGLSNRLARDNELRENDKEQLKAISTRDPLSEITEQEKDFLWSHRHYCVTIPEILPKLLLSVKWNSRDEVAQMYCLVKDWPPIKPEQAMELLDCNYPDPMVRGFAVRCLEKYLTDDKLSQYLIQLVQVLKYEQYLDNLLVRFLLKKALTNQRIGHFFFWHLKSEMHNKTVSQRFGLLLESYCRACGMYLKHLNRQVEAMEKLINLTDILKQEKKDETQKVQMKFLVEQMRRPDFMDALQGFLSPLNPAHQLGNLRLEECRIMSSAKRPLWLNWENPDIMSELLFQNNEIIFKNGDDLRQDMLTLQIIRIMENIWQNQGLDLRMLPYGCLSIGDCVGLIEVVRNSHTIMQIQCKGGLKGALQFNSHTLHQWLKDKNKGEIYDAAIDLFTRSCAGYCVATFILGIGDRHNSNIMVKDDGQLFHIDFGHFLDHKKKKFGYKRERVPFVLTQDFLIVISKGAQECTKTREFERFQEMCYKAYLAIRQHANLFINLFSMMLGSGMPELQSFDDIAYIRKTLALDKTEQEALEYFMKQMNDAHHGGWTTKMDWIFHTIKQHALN
Chain of PI3Kα (P27986 whole entry partner): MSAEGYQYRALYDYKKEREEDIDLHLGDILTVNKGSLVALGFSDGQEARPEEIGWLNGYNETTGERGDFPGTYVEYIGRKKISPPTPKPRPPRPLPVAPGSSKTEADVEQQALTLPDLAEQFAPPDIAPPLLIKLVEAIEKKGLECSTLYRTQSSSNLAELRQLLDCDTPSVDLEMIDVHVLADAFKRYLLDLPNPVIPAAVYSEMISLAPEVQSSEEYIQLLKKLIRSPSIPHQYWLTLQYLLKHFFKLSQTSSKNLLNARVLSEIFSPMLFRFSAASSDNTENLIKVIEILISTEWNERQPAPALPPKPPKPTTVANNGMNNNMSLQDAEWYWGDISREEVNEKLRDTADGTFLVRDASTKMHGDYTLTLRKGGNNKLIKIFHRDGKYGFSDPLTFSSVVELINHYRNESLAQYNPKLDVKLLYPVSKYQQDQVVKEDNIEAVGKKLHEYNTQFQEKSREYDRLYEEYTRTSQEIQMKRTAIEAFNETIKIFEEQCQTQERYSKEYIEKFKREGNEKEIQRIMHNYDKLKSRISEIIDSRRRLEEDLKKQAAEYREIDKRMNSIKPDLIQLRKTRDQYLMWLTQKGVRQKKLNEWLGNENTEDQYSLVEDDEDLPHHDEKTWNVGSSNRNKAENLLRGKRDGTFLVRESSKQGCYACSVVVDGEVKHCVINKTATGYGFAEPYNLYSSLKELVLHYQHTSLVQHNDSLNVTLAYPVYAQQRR

mTOR [2] = molecular target: T1, mTOR (Homo sapiens, UniProt P42345); assay: mTOR kinase inhibition, Lance Ultra assay; type: biochemical; settings: for IC50: mTOR, IC50, mean ± SD of triplicate measurements
HCT-116 cells = assay: Cell viability CCK-8 assay; type: cell-based; settings: Homo sapiens, HCT-116, 48 h, read-out: Antiproliferative IC50 ± SD
[3] = tested on: panel of 200 human kinases; assay: Kinase-specificity profiling; type: binding; settings: 1.0 μmol/L
MDA-MB-231 cells [4] = assay: Transwell invasion assay; type: cell-based, human; settings: MDA-MB-231, concentration-dependent
[5] = Pharmacokinetic study in SD rats; type: in vivo
MDA-MB-231 cells [6] = assay: Wound healing; type: cell-based, human; settings: MDA-MB-231, 0.25, 0.5, 1.0 μmol/L, concentration-dependent
MDA-MB-231 cells [7] = assay: Apoptosis, Annexin V-AF647/7AAD flow cytometry; type: cell-based, human; settings: 24 h
PI3KC2g(h) = PI3KC2g(h) (Homo sapiens, UniProt O75747); assay: Kinase profiling; type: binding; settings: 1.0 μmol/L
[8] = tested on: cGAS/STING signaling pathway; assay: Western blot of cGAS/STING signaling pathway in MDA-MB-231 cells; type: cell-based, human; settings: MDA-MB-231, 0.5‒2.0 μmol/L, 24 h
[9] = tested on: PI3K/Akt/mTOR signaling pathway; assay: Western blot of PI3K/Akt/mTOR signaling pathway in MDA-MB-231 cells; type: cell-based, human; settings: MDA-MB-231, 0.5, 1, 2 μmol/L, 24 h
MDA-MB-231 xenograft = MDA-MB-231 xenograft tumor model; type: in vivo, female BALB/c nude mice; settings: i.v., Q3D × 6, Day 15; for TGI: listed as MT-44; for Tumor size: mean ± SEM
MDA-MB-468 cells = assay: Cell viability CCK-8 assay; type: cell-based; settings: Homo sapiens
MDA-MB-231 cells [10] = assay: Autophagy induction, Western blot and LC3B immunofluorescence; type: cell-based, human; settings: MDA-MB-231, 0.5, 1, 2 μmol/L, 24 h
mTOR [11] = molecular target: T1, mTOR; assay: Cellular thermal shift assay; type: cell-based; settings: MDA-MB-231 cells, 5 μmol/L, 8 h
MDA-MB-231 cells [12] = assay: Colony formation assay; type: cell-based, human; settings: MDA-MB-231, 0.05, 0.1, 0.5 μmol/L
[13] = Sprague-Dawley, rat, plasma, iv, 5 mg/kg
[14] = Sprague-Dawley, rat, plasma, po, 20 mg/kg

IC50 (MDA-MB-231 cells [1]): 337 ± 12.8 nM
IC50 (MDA-MB-436 cells): 498 ± 18.1 nM
IC50 (CYP 2C9): 140 nM
IC50 (CYP 1A2): > 50000 nM
IC50 (PI3Kβ): > 10000 nM
IC50 (MCF-7 cells): 118 ± 63.6 nM
IC50 (PI3Kγ): > 10000 nM
IC50 (PI3Kδ): > 10000 nM
IC50 (CYP 2D6): 5520 nM
IC50 (CYP 3A4): 7860 nM
IC50 (CYP 2C19): 680 nM
IC50 (PI3Kα): > 10000 nM
IC50 (mTOR [2]): 45.2 ± 8.8 nM
fold more potent than the lead compound MT-1 (mTOR IC50) (mTOR [2]; vs MT-1): 34 fold
IC50 (HCT-116 cells): 1510 ± 361 nM
SMILES: NCCC(=O)Nc1ccccc1/N=c1\cc(-c2ccc3nc(N)oc3c2)oc2ccccc12 [Compound 12a, (E)-3-amino-N-(2-((2-(2-aminobenzo[d]oxazol-6-yl)-4H-chromen-4-ylidene)amino)phenyl)propanamide]

IC50 (MDA-MB-231 cells [1]): 66.5 ± 1.5 nM
IC50 (MDA-MB-436 cells): 148 ± 1.7 nM
IC50 (CYP 2C9): > 50000 nM
IC50 (CYP 1A2): > 50000 nM
binding activity to the panel of kinases [3]: no obvious binding activity
IC50 (PI3Kβ): > 10000 nM
IC50 (MCF-7 cells): 328 ± 5.4 nM
Cl ([5]; SD rats, i.g. 20 mg/kg): 0.75 ± 0.07 mL/min/kg
Vss ([5]; SD rats, i.g. 20 mg/kg): 15.04 ± 4.24 L/kg
AUC(0-inf) [5, 13]: 29900 ng·h/mL
AUC(0-t) [5, 13]: 28800 ng·h/mL
Cmax [5, 13]: 29200 ng/mL
MRT last [5, 13]: 2.93 ± 0.16 h
Tmax [5, 13]: 0.05 h
Vd [5, 13]: 4.43 ± 0.93 L/kg
clearance [5, 13]: 2.83 mL/min/kg
half-life [5, 13]: 14.1 ± 3.35 h
bioavailability ([5]; Sprague-Dawley, rat, plasma, oral, 20 mg/kg): 4.75%
AUC(0-inf) [5, 14]: 5680 ± 501 ng·h/mL
AUC(0-t) [5, 14]: 5300 ± 514 ng·h/mL
Cmax [5, 14]: 1150 ± 174 ng/mL
MRT last [5, 14]: 5.44 ± 0.2 h
Tmax [5, 14]: 1.4 ± 0.55 h
half-life [5, 14]: 14 ± 4.11 h
IC50 (PI3Kγ): > 10000 nM
IC50 (PI3Kδ): > 10000 nM
IC50 (CYP 2D6): 19900 nM
binding to PI3KC2γ (PI3KC2g(h)): weak binding
IC50 (CYP 3A4): > 50000 nM
IC50 (CYP 2C19): > 50000 nM
IC50 (MDA-MB-468 cells; MDA-MB-468, read-out: Antiproliferative IC50): 148 nM
IC50 (PI3Kα): > 10000 nM
target engagement of mTOR in CETSA (mTOR [11]): directly interacts with mTOR protein
IC50 (mTOR [2]): 49.4 ± 17.1 nM
IC50 (HCT-116 cells): 555 ± 315 nM
SMILES: COc1ccc2oc(-c3ccc4nc(N)oc4c3)c/c(=N\c3ccccc3NC(=O)CCN)c2c1 [Compound 12j, (E)-3-amino-N-(2-((2-(2-aminobenzo[d]oxazol-6-yl)-6-methoxy-4H-chromen-4-ylidene)amino)phenyl)propanamide]
fold more potent antiproliferative effect than Doxorubicin (MDA-MB-231 cells [1]; MDA-MB-231): 1.1 fold
fold more potent antiproliferative effect than Everolimus (MDA-MB-231 cells [1]; MDA-MB-231): 34.4 fold
invasion (MDA-MB-231 cells [4]): significantly inhibit the invasion
anti-migration effect (MDA-MB-231 cells [6]): significantly inhibit the migration
percentage of total apoptotic cells (MDA-MB-231 cells [7]; MDA-MB-231, 0.5 μmol/L): 4.73%
percentage of total apoptotic cells (MDA-MB-231 cells [7]; MDA-MB-231, 1 μmol/L): 9.43%
percentage of total apoptotic cells (MDA-MB-231 cells [7]; MDA-MB-231, 2 μmol/L): 22.23%
phosphorylation of STING(Ser366), TBK(Ser172), IRF3(Ser366) [8]: concentration-dependent increase
expression of p-P70S6K(Thr389), p-Akt(Ser473), p-4EBP1(Thr37/46) [9]: significantly downregulated in a concentration-dependent manner
T/C (MDA-MB-231 xenograft; 10 mg/kg): 61.36%
TGI (MDA-MB-231 xenograft; 10 mg/kg): 38.64% and 38.64 ^d %
Tumor size (MDA-MB-231 xenograft; 10 mg/kg): 210.95 ± 33.18 mm^3
T/C (MDA-MB-231 xenograft; 20 mg/kg): 27.27%
TGI (MDA-MB-231 xenograft; 20 mg/kg): 72.73% and 72.73 ^e %
Tumor size (MDA-MB-231 xenograft; 20 mg/kg): 115.97 ± 20.63 mm^3
inhibition at 1 µM (MDA-MB-468 cells; MDA-MB-468, read-out: Inhibition rate @ 1.0 μmol/L): 74%
autophagy induction (MDA-MB-231 cells [10]): significantly enhanced autophagy induction
colony formation ability (MDA-MB-231 cells [12]): significantly inhibited
